16 compounds from patent US10259807B2, “1-(piperazin-1-yl)-2-([1,2,4]triazol-1-yl)-ethanone derivatives” (Idorsia Pharmaceuticals Ltd., priority 2013, dated 2019) can be followed below.

One data set deals with T1, human CXCR3A (Homo sapiens, UniProt P49682).
T1 construct: expressed in transfected cells; host or cells: CHO-K1
T1 sequence (P49682 1-368): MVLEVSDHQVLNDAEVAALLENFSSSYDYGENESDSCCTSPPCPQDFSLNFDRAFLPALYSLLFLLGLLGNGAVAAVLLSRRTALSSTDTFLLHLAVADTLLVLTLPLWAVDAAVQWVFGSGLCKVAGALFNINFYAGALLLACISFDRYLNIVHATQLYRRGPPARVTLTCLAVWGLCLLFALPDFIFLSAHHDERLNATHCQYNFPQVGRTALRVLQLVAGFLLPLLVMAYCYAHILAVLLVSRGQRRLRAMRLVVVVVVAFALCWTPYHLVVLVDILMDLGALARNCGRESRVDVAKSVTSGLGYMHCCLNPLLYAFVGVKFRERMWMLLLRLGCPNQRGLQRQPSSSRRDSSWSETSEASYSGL
Kind of data set: FLIPR assay (CXCL10-induced calcium signal in CHO-K1 cells). In kind it is cell-based. Particulars: CHO-K1 cells expressing human CXCR3A coupled to Galpha(16); CXCL10 agonist 20 nM; mean values. As for the experimental part: A) FLIPR assay: The bioactivity of compounds is tested in a fluorometric imaging plate reader (FLIPR: Molecular Devices) using engineered CHO-K1 cells expressing the human CXCR3A (GenBank: AY242128) coupled to a G protein (Galpha(16)). Cells are plated the day prior to bioassay in F12 medium supplemented with 10% FBS and G418 and hygromycin antibiotics to maintain recombinant selection. […] Cells are washed free of excess dye and 60 microliter of wash buffer is added. Stock solutions of test compounds are made up at a concentration of 10 mM in DMSO, and serially diluted in dilution buffer to concentrations required for inhibition dose response curves. After a 10 minute incubation period at 37° C., 10 microliters of each compound dilution are transferred from a compound plate to the plate containing the recombinant cells in the FLIPR instrument according to the manufacturer's instructions. Following basal readings, 10 microliter CXCL10 agonist at a concentration of 20 nM (from Peprotech) is added, again using the FLIPR instrument. Changes in fluorescence are monitored before and after addition of the test compounds. Emission peak values above base level after CXCL10 addition are exported after base line subtraction. The program XLfit is used to fit the data to a single site dose response curve and to calculate IC50 values. The calculated IC50 values may fluctuate depending on the daily assay performance. Fluctuations of this kind are known to those skilled in the art.

A further data set has as its target T2, hERG K channel (Homo sapiens, UniProt Q12809).
T2 construct: host or cells: CHO
Kind of data set: hERG Q-Patch assay. The class given is cell-based. The note with it: CHO cells expressing hERG, K+ tail current 3 min after application, mean of two or three experiments. The procedure: B) hERG Q-Patch assay: Compounds are evaluated for block of the hERG K channel using CHO cells stably expressing the hERG gene (accession number U04270, bSys, Witterswil. Switzerland) and the Patch robotic platform (Sophion, Ballerup, Denmark) in single-cell mode at room temperature. […] When the cells are ˜80% confluent (every 2-3 days), they are either split for further culture or used for electrophysiology. […] Cells are kept in suspension medium at 32-35° C. in the QPatch robot until use, at which time aliquots are transferred to the extracellular solution (in mM: NaCl 150; KCl 4; CaCl2 1.2; MgCl2 1; HEPES 10; pH 7.4 with NaOH) containing 0.3% v/v DMSO and applied to the test plates. K^+ currents are measured with the patch-voltage-clamp technique in the whole-cell configuration with the internal solution (in […]: KCl, 140; NaCl, 10; MgCl2, 1; HEPES, 10; EGTA, 5; pH=7.2 with KOH). […] K^+tail currents are produced from a holding voltage of −80 mV by a 500-ms depolarization to +20 mV followed by a 500-ms repolarization to −40 mV; tail current amplitudes are measured at the end of the repolarization to −40 mV. The pulse pattern is repeated every 10 sec during the experiment, baseline K^+ current is measured after 3 min in extracellular solution, test-solution containing compound is then applied, and K^+ current in presence of compound is measured 3 minutes after application to the cells.
For orientation: Block of hERG is tested as a sign of cardiac risk.

T2 sequence (Q12809 whole entry): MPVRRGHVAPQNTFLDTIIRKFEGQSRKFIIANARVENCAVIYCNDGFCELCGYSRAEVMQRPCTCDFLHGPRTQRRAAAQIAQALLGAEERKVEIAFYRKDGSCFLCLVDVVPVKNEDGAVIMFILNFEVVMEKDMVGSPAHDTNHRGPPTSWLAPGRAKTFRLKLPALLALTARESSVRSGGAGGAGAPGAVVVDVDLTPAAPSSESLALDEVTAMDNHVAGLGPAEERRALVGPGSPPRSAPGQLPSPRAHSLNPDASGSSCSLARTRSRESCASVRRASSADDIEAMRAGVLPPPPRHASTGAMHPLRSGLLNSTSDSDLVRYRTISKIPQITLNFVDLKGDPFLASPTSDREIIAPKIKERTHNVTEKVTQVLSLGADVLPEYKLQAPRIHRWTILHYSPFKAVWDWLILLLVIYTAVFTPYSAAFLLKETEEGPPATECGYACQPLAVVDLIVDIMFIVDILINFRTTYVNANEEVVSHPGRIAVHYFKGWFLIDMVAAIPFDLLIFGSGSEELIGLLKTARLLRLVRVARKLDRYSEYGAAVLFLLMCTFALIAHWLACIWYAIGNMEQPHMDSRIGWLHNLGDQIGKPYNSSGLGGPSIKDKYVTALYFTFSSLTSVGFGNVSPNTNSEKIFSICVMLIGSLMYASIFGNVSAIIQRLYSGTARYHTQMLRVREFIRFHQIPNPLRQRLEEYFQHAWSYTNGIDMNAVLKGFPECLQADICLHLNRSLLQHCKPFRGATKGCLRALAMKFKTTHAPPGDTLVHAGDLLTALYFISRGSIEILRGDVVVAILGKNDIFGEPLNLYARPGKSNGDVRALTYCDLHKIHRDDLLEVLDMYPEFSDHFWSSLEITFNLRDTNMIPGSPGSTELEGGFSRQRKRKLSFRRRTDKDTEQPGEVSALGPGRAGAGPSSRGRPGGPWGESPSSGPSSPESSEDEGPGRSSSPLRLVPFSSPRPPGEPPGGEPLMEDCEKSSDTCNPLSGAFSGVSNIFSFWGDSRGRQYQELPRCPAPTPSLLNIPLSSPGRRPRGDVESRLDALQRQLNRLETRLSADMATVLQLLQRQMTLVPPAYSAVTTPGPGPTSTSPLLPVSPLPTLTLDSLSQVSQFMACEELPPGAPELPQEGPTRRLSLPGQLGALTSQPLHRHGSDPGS

`CCc1ccc(-c2nc(C(F)(F)F)sc2N2CCN(C(=O)Cn3nc(C)nc3C)[C@H](C)C2)cc1` [Example 9, 2-(3,5-Dimethyl-[1,2,4]triazol-1-yl)-1-{(R)-4-[4-(4-ethyl-phenyl)-2-trifluoromethyl-thiazol-5-yl]-2-methyl-piperazin-1-yl}-ethanone]: on human CXCR3A, the IC50 (commonly the concentration that gives 50% inhibition) came to 0.036 µM. In addition, the figures for the “% block” value at hERG K channel (concentration 300 nM) and on hERG K channel (concentration 3000 nM) were 12% and 44%, respectively.

On to `Cc1nc(C)n(CC(=O)N2CCN(c3sc(C(F)(F)F)nc3-c3cnc4c(c3)CCCO4)C[C@H]2C)n1` [Example 39, 1-{(R)-4-[4-(3,4-Dihydro-2H-pyrano[2,3-b]pyridin-6-yl)-2-trifluoromethyl-thiazol-5-yl]-2-methyl-piperazin-1-yl}-2-(3,5-dimethyl-[1,2,4]triazol-1-yl)-ethanone], for which the IC50 at human CXCR3A amounted to 0.031 µM. The “% block” value on hERG K channel (concentration 300 nM) is 3%; on hERG K channel (concentration 3000 nM), 15%.

`Cc1ccc(-c2nc(C(F)(F)F)sc2N2CCN(C(=O)Cn3nc(C)nc3C)[C@H](C)C2)cc1` [Example 8, 2-(3,5-Dimethyl-[1,2,4]triazol-1-yl)-1-[(R)-2-methyl-4-(4-p-tolyl-2-trifluoromethyl-thiazol-5-yl)-piperazin-1-yl]-ethanone]: the concentration for half-maximal inhibition (IC50) on human CXCR3A was found to be 0.028 µM. The entries for the “% block” value on hERG K channel (concentration 300 nM) and at hERG K channel (concentration 3000 nM) were 22% and 61%, respectively.

Take `Cc1nc(C)n(CC(=O)N2CCN(c3sc(C(F)(F)F)nc3-c3cnc(CCN(C)C)nc3)C[C@H]2C)n1` [Example 42, 1-((R)-4-{4-[2-(2-Dimethylamino-ethyl)-pyrimidin-5-yl]-2-trifluoromethyl-thiazol-5-yl}-2-methyl-piperazin-1-yl)-2-(3,5-dimethyl-[1,2,4]triazol-1-yl)-ethanone]: the IC50 on human CXCR3A worked out at 0.091 µM. In addition, the results for the “% block” value on hERG K channel (concentration 300 nM) and at hERG K channel (concentration 3000 nM) were −3% and 0%, respectively.

With `CCOc1ncc(-c2nc(C(F)(F)F)sc2N2CCN(C(=O)Cn3nc(C)nc3C)CC2)cn1` [Example 35, 2-(3,5-Dimethyl-[1,2,4]triazol-1-yl)-1-{4-[4-(2-ethoxy-pyrimidin-5-yl)-2-trifluoromethyl-thiazol-5-yl]-piperazin-1-yl}-ethanone], the IC50 on human CXCR3A is 0.0046 µM. Moreover, the “% block” value is 2% at hERG K channel (concentration 300 nM) and 4% at hERG K channel (concentration 3000 nM).

In the case of `CCOc1ncc(-c2nc(C(F)(F)F)sc2N2CCN(C(=O)Cn3nc(C)nc3C)[C@H](C)C2)c(OCC)n1` [Example 29, 1-{(R)-4-[4-(2,4-Diethoxy-pyrimidin-5-yl)-2-trifluoromethyl-thiazol-5-yl]-2-methyl-piperazin-1-yl}-2-(3,5-dimethyl-[1,2,4]triazol-1-yl)-ethanone], the IC50 at human CXCR3A was found to be 0.0045 µM. Also, the “% block” value on hERG K channel (concentration 300 nM) is on record as −2%; on hERG K channel (concentration 3000 nM) it was 0%.

`Cc1nc(C)n(CC(=O)N2CCN(c3sc(C(F)(F)F)nc3-c3ccc(OCC(F)(F)F)cc3)C[C@H]2C)n1` [Example 4, 2-(3,5-Dimethyl-[1,2,4]triazol-1-yl)-1-((R)-2-methyl-4-{4-[4-(2,2,2-trifluoro-ethoxy)-phenyl]-2-trifluoromethyl-thiazol-5-yl}-piperazin-1-yl)-ethanone]: on human CXCR3A, the IC50 worked out at 0.012 µM. In addition, the “% block” value on hERG K channel (concentration 300 nM) is given as 25%; at hERG K channel (concentration 3000 nM), 54%.

With `Cc1nc(CO)nn1CC(=O)N1CCN(c2sc(C(F)(F)F)nc2-c2cnc(C(F)(F)F)nc2)C[C@H]1C` [Example 44, 2-(3-Hydroxymethyl-5-methyl-[1,2,4]triazol-1-yl)-1-{(R)-2-methyl-4-[2-trifluoromethyl-4-(2-trifluoromethyl-pyrimidin-5-yl)-thiazol-5-yl]-piperazin-1-yl}-ethanone], the IC50 on human CXCR3A came out at 0.0051 µM. In addition, the “% block” value is given as −3% on hERG K channel (concentration 300 nM) and −6% on hERG K channel (concentration 3000 nM).

Regarding `COc1ccc(-c2nc(C(F)(F)F)sc2N2CCN(C(=O)Cn3nc(C)nc3C)[C@H](C)C2)cc1F` [Example 10, 2-(3,5-Dimethyl-[1,2,4]triazol-1-yl)-1-{(R)-4-[4-(3-fluoro-4-methoxy-phenyl)-2-trifluoromethyl-thiazol-5-yl]-2-methyl-piperazin-1-yl}-ethanone], at human CXCR3A, the IC50 stood at 0.02 µM. For the same compound, the entries for the “% block” value on hERG K channel (concentration 300 nM) and on hERG K channel (concentration 3000 nM) were 7% and 20%, respectively.

Take `Cc1nc(C)n(CC(=O)N2CCN(c3sc(C(F)(F)F)nc3-c3ccc4c(c3)OCCO4)C[C@H]2C)n1` [Example 14, 1-{(R)-4-[4-(2,3-Dihydro-benzo[1,4]dioxin-6-yl)-2-trifluoromethyl-thiazol-5-yl]-2-methyl-piperazin-1-yl}-2-(3,5-dimethyl-[1,2,4]triazol-1-yl)-ethanone]: the IC50 at human CXCR3A is 0.031 µM. Further, the “% block” value at hERG K channel (concentration 300 nM) was found to be 5%; on hERG K channel (concentration 3000 nM), 14%.

For the compound `COc1ccc(-c2nc(C(F)(F)F)sc2N2CCN(C(=O)Cn3nc(C)nc3C)[C@H](C)C2)cc1` [Example 1, 2-(3,5-Dimethyl-[1,2,4]triazol-1-yl)-1-{(R)-4-[4-(4-methoxy-phenyl)-2-trifluoromethyl-thiazol-5-yl]-2-methyl-piperazin-1-yl}-ethanone], the half-inhibitory concentration (IC50) at human CXCR3A turned out to be 0.111 µM. Besides, the “% block” value on hERG K channel (concentration 300 nM) is on record as 4%; at hERG K channel (concentration 3000 nM) it was 13%.

Turning to `Cc1nc(C)n(CC(=O)N2CCN(c3sc(C(F)(F)F)nc3-c3ccc4c(c3)CCO4)C[C@H]2C)n1` [Example 40, 1-{(R)-4-[4-(2,3-Dihydro-benzofuran-5-yl)-2-trifluoromethyl-thiazol-5-yl]-2-methyl-piperazin-1-yl}-2-(3,5-dimethyl-[1,2,4]triazol-1-yl)-ethanone], the IC50 at human CXCR3A amounted to 0.022 µM. Further, the “% block” value on hERG K channel (concentration 300 nM) came to 1%; at hERG K channel (concentration 3000 nM), 25%.

With `Cc1nc(C)n(CC(=O)N2CCN(c3sc(C(F)(F)F)nc3-c3ccc4c(c3)OCO4)C[C@H]2C)n1` [Example 13, 1-[(R)-4-(4-Benzo[1,3]dioxol-5-yl-2-trifluoromethyl-thiazol-5-yl)-2-methyl-piperazin-1-yl]-2-(3,5-dimethyl-[1,2,4]triazol-1-yl)-ethanone], the IC50 on human CXCR3A turned out to be 0.076 µM. Besides, the “% block” value on hERG K channel (concentration 300 nM) is reported as 9%; at hERG K channel (concentration 3000 nM) it was 39%.

For `COCCOc1ncc(-c2nc(C(F)(F)F)sc2N2CCN(C(=O)Cn3nc(C)nc3C)[C@H](C)C2)cn1` [Example 25, 2-(3,5-Dimethyl-[1,2,4]triazol-1-yl)-1-((R)-4-{4-[2-(2-methoxy-ethoxy)-pyrimidin-5-yl]-2-trifluoromethyl-thiazol-5-yl}-2-methyl-piperazin-1-yl)-ethanone], the IC50 on human CXCR3A was 0.0068 µM. The “% block” value on hERG K channel (concentration 300 nM) is −1%; on hERG K channel (concentration 3000 nM), 1%.

On to `CCc1nc(C)n(CC(=O)N2CCN(c3sc(C(F)(F)F)nc3-c3cnc(C(F)(F)F)nc3)C[C@H]2C)n1` (single isomer, unassigned) [Example 46], for which the half-inhibitory concentration (IC50) at human CXCR3A came to 0.0016 µM. Also, the “% block” value at hERG K channel (concentration 300 nM) is reported as 13%; at hERG K channel (concentration 3000 nM) it was 29%.

As for `Cc1nc(C)n(CC(=O)N2CCN(c3sc(C(F)(F)F)nc3-c3cnc(OCCN(C)C)nc3)C[C@H]2C)n1` [Example 26, 1-((R)-4-{4-[2-(2-Dimethylamino-ethoxy)-pyrimidin-5-yl]-2-trifluoromethyl-thiazol-5-yl}-2-methyl-piperazin-1-yl)-2-(3,5-dimethyl-[1,2,4]triazol-1-yl)-ethanone], the IC50 on human CXCR3A is 0.041 µM. Moreover, the “% block” value on hERG K channel (concentration 300 nM) was −1%; on hERG K channel (concentration 3000 nM), −8%.
